{
  "source": "patent US12622918B2",
  "about": "“Formulations and dosages for administering a compound that inhibits MCL1 protein” (Amgen Inc., priority 2019, dated 2026)",
  "key": {"dog blood": {"system": "dog blood", "assay": "In vitro hemolysis of whole blood, dog", "settings": "0.1 and 1.0 mg/mL, vehicles containing hydroxypropyl-β-cyclodextrin"}, "Pharmacokinetics in mice": {"assay": "Pharmacokinetics in mice", "type": "in vivo", "from_the_text": "(§1) The pharmacokinetics (PK) of the compound of Formula I after single intravenous (IV) or oral administration were characterized in male CD1 mice, female athymic nude mice, male Nu/Nu mice, male Sprague Dawley rats, male beagle dogs, and male cynomolgus monkeys. The clearance (CL) of the compound was low in mice, rats, dogs, and monkeys relative to their hepatic blood flow. Volume of distribution at steady state (Vss) in mice, rats, dogs, and monkeys was variable across the species."}, "[1]": {"system": "OPM2-Luc tumor xenografts", "assay": "OPM2-Luc xenograft efficacy, once-weekly dosing", "type": "in vivo", "protocol": "Female athymic nude mice were injected subcutaneously with 5×10^6 human OPM2-Luc multiple myeloma tumor cells. […] Tumor volume and body weight were measured twice per week through day 26. […] In the 50 mg/kg intraperitoneal group, 98% regression was observed (p<0.0001) (FIG. 6)."}, "human blood": {"system": "human blood", "assay": "In vitro hemolysis of whole blood, human", "settings": "highest concentration tested, 0.25 mg/mL"}, "KMS-28-PE": {"system": "KMS-28-PE", "assay": "Cell viability (CellTiterGlo), KMS-28-PE", "type": "cell-based", "settings": "Multiple myeloma, 24 hours, 10% FBS, read-out: AMS 176 IC50"}, "Karoas620": {"system": "Karoas620", "assay": "Cell viability (CellTiterGlo), Karoas620", "type": "cell-based", "settings": "Karoas620, Multiple myeloma; 24 hours; 10% FBS; read-out: AMS 176 IC50"}, "Rabbit MCL1": {"target": "Rabbit MCL1 (Oryctolagus cuniculus, UniProt G1T2Q0)", "sequence (G1T2Q0 1-352)": "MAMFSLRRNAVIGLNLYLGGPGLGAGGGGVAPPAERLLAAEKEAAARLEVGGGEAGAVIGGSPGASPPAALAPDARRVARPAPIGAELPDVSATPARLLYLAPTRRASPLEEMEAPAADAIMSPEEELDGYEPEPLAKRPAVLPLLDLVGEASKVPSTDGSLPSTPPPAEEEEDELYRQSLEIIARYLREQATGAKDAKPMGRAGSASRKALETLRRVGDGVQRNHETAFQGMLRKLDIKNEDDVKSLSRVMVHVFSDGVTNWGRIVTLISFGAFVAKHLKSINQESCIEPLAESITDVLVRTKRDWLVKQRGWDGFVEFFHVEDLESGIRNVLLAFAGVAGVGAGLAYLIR", "assay": "Cell-free TR-FRET BIM-binding assay, Rabbit MCL1", "settings": "BIM-binding partner Rabbit MCL1; n = 3"}, "[2]": {"assay": "Distribution into blood cells", "type": "in vitro ADME"}, "MOLM-13": {"system": "MOLM-13", "assay": "Cell viability (CellTiterGlo), MOLM-13", "type": "cell-based", "settings": "Homo sapiens; MOLM-13, AML; 24 hours; 10% FBS; read-out: AMS 176 IC50"}, "KMS-28-BM": {"system": "KMS-28-BM", "assay": "Cell viability (CellTiterGlo), KMS-28-BM", "type": "cell-based", "settings": "Multiple myeloma, 24 hours, 10% FBS, read-out: AMS 176 IC50"}, "Pharmacokinetics in rats": {"assay": "Pharmacokinetics in rats", "settings": "male, Sprague Dawley, rat, in vivo, read-out: mean terminal elimination half-life (t1/2,z) (converted)", "from_the_text": "as §1"}, "[3]": {"system": "OPM2-Luc orthotopic tumors", "assay": "OPM2-Luc multiple myeloma orthotopic model, AMG 176 plus carfilzomib", "type": "in vivo", "settings": "AMG 176 20 mg/kg orally once daily; carfilzomib 3 mg/kg IV twice weekly; day 4 until day 20; female NSG mice", "protocol": "On day 0, female NSG mice were injected IV with 1×10^6 OPM2-Luc human OPM2-Luc multiple myeloma tumor cells transfected with the firefly luciferase gene."}, "BAK": {"system": "BAK", "assay": "BAK activation in OPM2-Luc tumor xenografts (PD)", "type": "in vivo, mice", "settings": "for BAK activation: 2-, vs vehicle p<0.05", "protocol": "Activation of the pro-apoptotic pore-forming protein BAK and proteolytic cleavage of the cysteine-aspartic acid protease caspase 3 (hallmarks of the induction of apoptosis) in MCL1-dependent OPM2-Luc multiple myeloma tumor cells served as a PD assay. Female athymic nude mice were injected with 5×10^6 cells in 0.1 mL subcutaneously (SC). […] Mice were euthanized 2, 4, 8, 12, and 24 hours postdose (n=3/group), terminal plasma samples were collected for PK analysis, and tumors were halved and snap frozen in liquid nitrogen for PK and molecular analyses. Tumor lysates were prepared for evaluation of BAK activation and caspase 3 cleavage using an electrochemiluminescence immunoassay. Tumors treated with vehicle (25% HPβCD, pH 8) served as a negative control and indicated the baseline level of apoptosis."}, "RL": {"system": "RL", "assay": "Cell viability (CellTiterGlo), RL", "type": "cell-based", "settings": "Homo sapiens, NHL, 24 hours, 10% FBS, high dose 20 μM, read-out: AMS 176 IC50"}, "[4]": {"system": "subjects with relapsed/refractory multiple myeloma", "assay": "Phase 1 FIH study, multiple myeloma part 1a (QD2)", "type": "in vivo, human", "quoted_text": "In part 1a, subjects were enrolled across 8 cohorts, with doses ranging from 30 to 240 mg/m^2 QD2. In part 1b, subjects were enrolled across 2 cohorts, with doses of 120/180-mg/m^2 or 120/240-mg/m^2."}, "Pharmacokinetics in dogs": {"assay": "Pharmacokinetics in dogs", "type": "in vivo", "from_the_text": "as §1"}, "HL-60": {"system": "HL-60", "assay": "Cell viability (CellTiterGlo), HL-60", "type": "cell-based", "settings": "Homo sapiens; HL-60, AML; 24 hours; 10% FBS; read-out: AMS 176 IC50"}, "Dog MCL1": {"target": "Dog MCL1 (Canis lupus familiaris, UniProt Q8HYS5)", "sequence (Q8HYS5 whole entry)": "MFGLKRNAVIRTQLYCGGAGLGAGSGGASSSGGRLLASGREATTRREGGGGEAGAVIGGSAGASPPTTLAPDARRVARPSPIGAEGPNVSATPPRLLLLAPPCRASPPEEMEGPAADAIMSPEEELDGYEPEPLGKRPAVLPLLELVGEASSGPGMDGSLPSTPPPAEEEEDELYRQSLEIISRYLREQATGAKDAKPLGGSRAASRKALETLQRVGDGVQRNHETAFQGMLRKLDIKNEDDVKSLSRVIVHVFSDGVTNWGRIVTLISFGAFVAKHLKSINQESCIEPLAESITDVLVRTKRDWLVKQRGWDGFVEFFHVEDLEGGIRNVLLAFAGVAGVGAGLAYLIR", "assay": "Cell-free TR-FRET BIM-binding assay, Dog MCL1", "settings": "BIM-binding partner Dog MCL1; n = 3"}, "[5]": {"system": "OPM2-Luc tumor xenografts", "assay": "OPM2-Luc xenograft efficacy, intermittent dosing", "type": "in vivo", "settings": "for animals tumor free: day 26", "protocol": "OPM2-Luc cells (5×10^6) were implanted subcutaneously into female athymic nude mice. […] With all tested doses and schedules, dose-dependent TGI was observed (FIG. 5). […] Six of 10 animals in the 60 mg/kg 5 days on/2 days off group and 10 of 10 animals in the once daily group were tumor free on day 26."}},
  "data": [
    {"smiles": "CO[C@H]1/C=C/C[C@H](C)[C@@H](C)S(=O)(=O)NC(=O)c2ccc3c(c2)N(C[C@@H]2CC[C@H]21)C[C@@]1(CCCc2cc(Cl)ccc21)CO3", "note": "[AMG 176]", "values": [
      {"measurement": "hemolysis of whole blood", "setting": "dog blood", "value": "cased hemolysis"},
      {"measurement": "mean terminal elimination half-life (t1/2,z)", "setting": "Pharmacokinetics in mice", "value": 13.8, "unit": "h"},
      {"measurement": "tumor regression", "setting": "[1]; 50 mg/kg intraperitoneally once per week", "value": 98, "unit": "%"},
      {"measurement": "TGI", "setting": "[1]; 50 mg/kg orally once per week", "value": 97, "unit": "%"},
      {"measurement": "animals tumor free", "setting": "[1]; 100 mg/kg once per week, day 26", "value": "Five out of 10"},
      {"measurement": "tumor growth inhibition (TGI)", "setting": "[1]; 100 mg/kg once-weekly oral, as stated in summary b107", "value": 70, "unit": "%"},
      {"measurement": "tumor regression", "setting": "[1]; 100 mg/kg orally once per week", "value": 70, "unit": "%"},
      {"measurement": "overt toxicity by changes in body weight", "setting": "[1]; once-weekly dosing groups", "value": "No evidence of overt toxicity"},
      {"measurement": "hemolysis of whole blood", "setting": "human blood", "value": "not hemolytic"},
      {"measurement": "IC50", "setting": "KMS-28-PE", "value": 12000, "unit": "nM"},
      {"measurement": "IC50", "setting": "Karoas620", "value": 487, "unit": "nM"},
      {"measurement": "IC50", "setting": "Rabbit MCL1", "value": 0.191, "unit": "nM"},
      {"measurement": "distribution into blood cells", "setting": "[2]", "value": "did not preferentially distribute into blood cells"},
      {"measurement": "IC50", "setting": "MOLM-13", "value": 241, "unit": "nM"},
      {"measurement": "IC50", "setting": "KMS-28-BM", "value": 205, "unit": "nM"},
      {"measurement": "half-life", "setting": "Pharmacokinetics in rats", "value": 19.5, "unit": "h"},
      {"measurement": "TGI (tumor burden)", "setting": "[3]", "value": 86, "unit": "%"},
      {"measurement": "BAK activation", "setting": "BAK; 30 mg/kg oral gavage, 4-, and 8-hour time points", "value": "Statistically significant BAK activation"},
      {"measurement": "time point of greatest BAK activation", "setting": "BAK; 60 mg/kg oral gavage", "value": 4, "unit": "h"},
      {"measurement": "BAK activation", "setting": "BAK; 60 mg/kg oral gavage, 4-, 8-, and 12-hour time points", "value": "Statistically significant BAK activation"},
      {"measurement": "induction of multiple markers of apoptosis, including BAK activation and caspase 3 cleavage", "setting": "BAK; OPM2-Luc tumor xenografts, summary statement", "value": "dose-dependent induction"},
      {"measurement": "IC50", "setting": "RL", "value": "> 20000", "unit": "nM"},
      {"measurement": "Grade 3 adverse events, subjects", "setting": "[4]; MM part 1a", "value": 65, "unit": "%"},
      {"measurement": "Serious adverse events, subjects", "setting": "[4]; MM part 1a", "value": 31, "unit": "%"},
      {"measurement": "adverse events considered related to AMG 176, subjects", "setting": "[4]; MM part 1a", "value": 69, "unit": "%"},
      {"measurement": "adverse events leading to discontinuation of investigational product", "setting": "[4]; MM part 1a", "value": "No adverse event led to discontinuation"},
      {"measurement": "anemia of grade 3 or higher", "setting": "[4]; MM part 1a", "value": 15, "unit": "%"},
      {"measurement": "decreased neutrophil count of grade 3 or higher", "setting": "[4]; MM part 1a", "value": 8, "unit": "%"},
      {"measurement": "decreased white blood cell count of grade 3 or higher", "setting": "[4]; MM part 1a", "value": 8, "unit": "%"},
      {"measurement": "grade 4 adverse events, subjects", "setting": "[4]; MM part 1a", "value": 31, "unit": "%"},
      {"measurement": "hypertension of grade 3 or higher", "setting": "[4]; MM part 1a", "value": 8, "unit": "%"},
      {"measurement": "neutropenia of grade 3 or higher", "setting": "[4]; MM part 1a", "value": 31, "unit": "%"},
      {"measurement": "related diarrhea", "setting": "[4]; MM part 1a", "value": 19, "unit": "%"},
      {"measurement": "related nausea", "setting": "[4]; MM part 1a", "value": 23, "unit": "%"},
      {"measurement": "related neutropenia", "setting": "[4]; MM part 1a", "value": 23, "unit": "%"},
      {"measurement": "treatment-emergent adverse events, subjects", "setting": "[4]; MM part 1a QD2, 26 subjects", "value": 96, "unit": "%"},
      {"measurement": "anemia, subjects", "setting": "[4]; MM part 1a, any grade", "value": 27, "unit": "%"},
      {"measurement": "diarrhea, subjects", "setting": "[4]; MM part 1a, any grade", "value": 31, "unit": "%"},
      {"measurement": "fatigue, subjects", "setting": "[4]; MM part 1a, any grade", "value": 27, "unit": "%"},
      {"measurement": "nausea, subjects", "setting": "[4]; MM part 1a, any grade", "value": 35, "unit": "%"},
      {"measurement": "neutropenia, subjects", "setting": "[4]; MM part 1a, any grade", "value": 31, "unit": "%"},
      {"measurement": "dose-limiting toxicity (DLT) reported", "setting": "[4]; MM part 1a, 1 subject in the 240 mg/m^2 cohort, fatal", "value": "tumor lysis syndrome"},
      {"measurement": "exposures (Cmax and AUC) versus dose", "setting": "[4]; MM part 1a, 25 subjects, preliminary", "value": "generally increased with increasing doses"},
      {"measurement": "fatal adverse events", "setting": "[4]; MM part 1a, hepatic failure (50 mg/m^2, not related), tumor lysis syndrome (240 mg/m^2, related)", "value": "Two"},
      {"measurement": "mean terminal elimination half-life (t1/2,z)", "setting": "Pharmacokinetics in dogs", "value": 10.8, "unit": "h"},
      {"measurement": "IC50", "setting": "HL-60", "value": 110, "unit": "nM"},
      {"measurement": "IC50", "setting": "Dog MCL1", "value": 0.284, "unit": "nM"},
      {"measurement": "TGI", "setting": "[5]; 30 mg/kg 2 days on/5 days off", "value": 54, "unit": "%"},
      {"measurement": "TGI", "setting": "[5]; 30 mg/kg 5 days on/2 days off", "value": 85, "unit": "%"},
      {"measurement": "effect on growth of established OPM2-Luc tumors", "setting": "[5]; 30 mg/kg and 60 mg/kg, two days on/5 days off and 5 days on/2 days off, summary statement", "value": "significantly inhibited the growth"},
      {"measurement": "TGI", "setting": "[5]; 30 mg/kg once daily oral gavage", "value": 84, "unit": "%"},
      {"measurement": "tumor regression", "setting": "[5]; 60 mg/kg 2 days on/5 days off", "value": 21, "unit": "%"},
      {"measurement": "tumor regression", "setting": "[5]; 60 mg/kg 5 days on/2 days off", "value": 87, "unit": "%"},
      {"measurement": "animals tumor free", "setting": "[5]; 60 mg/kg 5 days on/2 days off", "value": "Six of 10"},
      {"measurement": "tumor regression", "setting": "[5]; 60 mg/kg once daily", "value": 100, "unit": "%"},
      {"measurement": "animals tumor free", "setting": "[5]; 60 mg/kg once daily", "value": "10 of 10"},
      {"measurement": "overt toxicity by body weight and body score assessment", "setting": "[5]; 30 or 60 mg/kg, all schedules", "value": "No evidence of overt toxicity"}
    ]}
  ]
}
